Results as given in ChEMBL document CHEMBL3994622, “Design and synthesis of new RAF kinase-inhibiting antiproliferative quinoline derivatives. Part 2: Diarylurea derivatives” (Eur J Med Chem, 2017).

Each compound was assayed on HT-29 (assay: Growth inhibition of human HT-29 cells assessed as cell growth at 10 uM incubated for 48 hrs by sulforhodamine B assay relative to control). Conditions: HT-29, 48 h, read-out: Activity.
Type: functional

Row | Structure (SMILES) | growth at 10 µM
1 | COc1cc2cc(Oc3ccc(NC(=O)Nc4cc(C(F)(F)F)cc(C(F)(F)F)c4)cc3)c(C)nc2cc1OC | 4.89%

These compounds were tested on IGROV-1 (assay: Growth inhibition of human IGROV1 cells assessed as cell growth at 10 uM incubated for 48 hrs by sulforhodamine B assay relative to control). Conditions: IGROV-1, 48 h, read-out: Activity.
Type: functional

Row | Structure (SMILES) | growth at 10 µM
2 | COc1cc2cc(Oc3ccc(NC(=O)Nc4cc(C(F)(F)F)cc(C(F)(F)F)c4)cc3)c(C)nc2cc1OC | 19.9%

The compounds below were run on SF-268 (assay: Growth inhibition of human SF268 cells assessed as cell growth at 10 uM incubated for 48 hrs by sulforhodamine B assay relative to control). Conditions: SF-268, 48 h, read-out: Activity.
Type: functional

Row | Structure (SMILES) | growth at 10 µM
3 | COc1cc2cc(Oc3ccc(NC(=O)Nc4cc(C(F)(F)F)cc(C(F)(F)F)c4)cc3)c(C)nc2cc1OC | 15.3%

Each compound was assayed on NCI-H23 (assay: Growth inhibition of human NCI-H23 cells assessed as cell growth at 10 uM incubated for 48 hrs by sulforhodamine B assay relative to control). Conditions: NCI-H23, 48 h, read-out: Activity.
Type: functional

Row | Structure (SMILES) | growth at 10 µM
4 | COc1cc2cc(Oc3ccc(NC(=O)Nc4cc(C(F)(F)F)cc(C(F)(F)F)c4)cc3)c(C)nc2cc1OC | 2.28%

Each compound was assayed on LOX IMVI (assay: Growth inhibition of human LOXIMVI cells assessed as cell growth at 10 uM incubated for 48 hrs by sulforhodamine B assay relative to control). Conditions: read-out: Activity.
Type: functional

Row | Structure (SMILES) | growth at 10 µM
5 | COc1cc2cc(Oc3ccc(NC(=O)Nc4cc(C(F)(F)F)cc(C(F)(F)F)c4)cc3)c(C)nc2cc1OC | 1.98%

These compounds were tested on NCI-H460 (assay: Growth inhibition of human NCI-H460 cells assessed as cell growth at 10 uM incubated for 48 hrs by sulforhodamine B assay relative to control). Conditions: NCI-H460, 48 h, read-out: Activity.
Type: functional

Row | Structure (SMILES) | growth at 10 µM
6 | COc1cc2cc(Oc3ccc(NC(=O)Nc4cc(C(F)(F)F)cc(C(F)(F)F)c4)cc3)c(C)nc2cc1OC | 7%

Each compound was assayed on Malme-3M (assay: Growth inhibition of human MALME-3M cells assessed as cell growth at 10 uM incubated for 48 hrs by sulforhodamine B assay relative to control). Conditions: read-out: Activity.
Type: functional

Row | Structure (SMILES) | growth at 10 µM
7 | COc1cc2cc(Oc3ccc(NC(=O)Nc4cc(C(F)(F)F)cc(C(F)(F)F)c4)cc3)c(C)nc2cc1OC | -3.13%

Each compound was assayed on SF-295 (assay: Growth inhibition of human SF295 cells assessed as cell growth at 10 uM incubated for 48 hrs by sulforhodamine B assay relative to control). Conditions: SF-295, 48 h, read-out: Activity.
Type: functional

Row | Structure (SMILES) | growth at 10 µM
8 | COc1cc2cc(Oc3ccc(NC(=O)Nc4cc(C(F)(F)F)cc(C(F)(F)F)c4)cc3)c(C)nc2cc1OC | -59.2%

The compounds below were run on HCT-15 (assay: Growth inhibition of human HCT15 cells assessed as cell growth at 10 uM incubated for 48 hrs by sulforhodamine B assay relative to control). Conditions: HCT-15, 48 h, read-out: Activity.
Type: functional

Row | Structure (SMILES) | growth at 10 µM
9 | COc1cc2cc(Oc3ccc(NC(=O)Nc4cc(C(F)(F)F)cc(C(F)(F)F)c4)cc3)c(C)nc2cc1OC | 2.75%

The compounds below were run on SF-539 (assay: Growth inhibition of human SF539 cells assessed as cell growth at 10 uM incubated for 48 hrs by sulforhodamine B assay relative to control). Conditions: SF-539, 48 h, read-out: Activity.
Type: functional

Row | Structure (SMILES) | growth at 10 µM
10 | COc1cc2cc(Oc3ccc(NC(=O)Nc4cc(C(F)(F)F)cc(C(F)(F)F)c4)cc3)c(C)nc2cc1OC | -41%

What follows are compounds tested on A498 (assay: Growth inhibition of human A498 cells assessed as cell growth at 10 uM incubated for 48 hrs by sulforhodamine B assay relative to control). Conditions: A498, 48 h, read-out: Activity.
Type: functional

Row | Structure (SMILES) | growth at 10 µM
11 | COc1cc2cc(Oc3ccc(NC(=O)Nc4cc(C(F)(F)F)cc(C(F)(F)F)c4)cc3)c(C)nc2cc1OC | -11.5%

Each compound was assayed on U-251 (assay: Growth inhibition of human U251 cells assessed as cell growth at 10 uM incubated for 48 hrs by sulforhodamine B assay relative to control). Conditions: U-251, 48 h, read-out: Activity.
Type: functional

Row | Structure (SMILES) | growth at 10 µM
12 | COc1cc2cc(Oc3ccc(NC(=O)Nc4cc(C(F)(F)F)cc(C(F)(F)F)c4)cc3)c(C)nc2cc1OC | -26.5%

What follows are compounds tested on MDA-MB-468 (assay: Growth inhibition of human MDA-MB-468 cells assessed as cell growth at 10 uM incubated for 48 hrs by sulforhodamine B assay relative to control). Conditions: MDA-MB-468, 48 h, read-out: Activity.
Type: functional

Row | Structure (SMILES) | growth at 10 µM
13 | COc1cc2cc(Oc3ccc(NC(=O)Nc4cc(C(F)(F)F)cc(C(F)(F)F)c4)cc3)c(C)nc2cc1OC | -8.12%

What follows are compounds tested on MCF7 (assay: Growth inhibition of human MCF7 cells assessed as cell growth at 10 uM incubated for 48 hrs by sulforhodamine B assay relative to control). Conditions: MCF7, 48 h, read-out: Activity.
Type: functional

Row | Structure (SMILES) | growth at 10 µM
14 | COc1cc2cc(Oc3ccc(NC(=O)Nc4cc(C(F)(F)F)cc(C(F)(F)F)c4)cc3)c(C)nc2cc1OC | 0.59%

Each compound was assayed on SK-MEL-2 (assay: Growth inhibition of human SK-MEL-2 cells assessed as cell growth at 10 uM incubated for 48 hrs by sulforhodamine B assay relative to control). Conditions: SK-MEL-2, 48 h, read-out: Activity.
Type: functional

Row | Structure (SMILES) | growth at 10 µM
15 | COc1cc2cc(Oc3ccc(NC(=O)Nc4cc(C(F)(F)F)cc(C(F)(F)F)c4)cc3)c(C)nc2cc1OC | -30.4%
